Tested on: RCC4, RCC4/VHL, SN12C and SN12C-VHL shRNA cells
Test: Acidic vesicle organelles with acridine orange (FACS)
Format: cell-based
Conditions: 1.25 μM, VHL-deficient versus wild-type VHL cells
Procedure: Quantification of Acidic Vesicle Organelles with Acridine Orange. In acridine orange-stained cells, the cytoplasm and nucleus are bright green and dim red, whereas acidic compartments are bright red. The intensity of the red fluorescence is proportional to the degree of acidity. Following 20 hours of treatment with STF-62247 or analogs, cells were stained with 1 μg/ml of acridine orange for 15 min. Cells were trypsinized and then analyzed by flow cytometry using FACScan cytometer and CellQuest software.
A. VHL-deficient RCC4 and wild-type VHL were incubated in presence of 10 μM LY294002, or 1 μg/mlBrefeldin A with 1.25 μM of STF-62247 for 20 hrs and the presence of vacuoles was examined under light microscopy. B,C. LC3 processing was evaluated by Western blot after the treatment with Brefeldin A or LY294002 in presence or absence of STF-62247 as described above. Tubulin was used as loading control. D. Cells were treated with 1.25 μM of STF-62247 with or without 2 mM of 3-MA, 1 μg/ml of Brefeldin A for 20 hrs. For the last 15 min, acidic components were stained with 1 μg/ml of acridine orange and visualized under fluorescence microscope. […] F. Quantification of the FACS analysis. The data are calculated as the average of three different experiments as relative units of treated over untreated cells. The error bars are represented as the standard error of the mean (SEM).
A. RCC4 and RCC4/VHL were treated with 1.25 μM of each 19 analogs for 20 hours and the presence of vacuoles was examined under light microscopy. B. Western blot for LC3 after treatment with each compound. Tubulin was used as loading control. Ratio is the relative from the IC50 in RCC4/VHL cells/IC50 in RCC4 cells. C. Acidic vesicle organelles (AVO) measured by FACS analysis in cells treated with 1.25 μM of STF-62247 or with compounds 21, 15, 25, 47, and 53 and stained with acridine orange.

Cc1cccc(Nc2nc(-c3ccncc3)cs2)c1 [Compound 5, N-(3-Methylphenyl)-4-(4-pyridinyl)-1,3-thiazol-2-amine]
acridine orange staining / amount of AVOs: significantly increased in VHL-deficient RCC4 cells compared to their wild-type VHL counterparts

Reference: patent publication US20110105436A1, “HETEROARYL COMPOUNDS, COMPOSITIONS, AND METHODS OF USE IN CANCER TREATMENT” (AUCKLAND UNISERVICES LIMITED, priority 2008, published 2011)
